In the assay the target is T1, TGase MTG P2 (Streptomyces mobaraensis, UniProt P81453).
T1 construct: made in house; host or cells: E. coli
The class given is biochemical, Streptovercilium mobaraense. On the procedure: TGase: • (a) TGase Activa WM from Ajinomoto, 60 mg/ml in 20 mM Phosphate buffer pH 8.5. The Activa WM enzyme from Streptoverticillium mobaraense is formulated under dry form in maltodextrins and contains 1% w/w of protein) (6.7 μl)); or • (b) TGase MTG P2 from Streptovercilium mobaraense expressed in soluble form using E. coli as expression system was formulated in 20 mM NaPhosphate buffer, pH 6.0, with 2 mM DTT and 5 w/v % maltodextrin. The concentration of the enzyme was between 0.7 and 4.5 mg/ml.
Capillary electrophoresis (CE) was carried out using an Agilent Technologies 3D-CE system (Agilent Technologies). Data acquisition and signal processing were performed using Agilent Technologies 3DCE ChemStation. The capillary was a 64.5 cm (56.0 cm efficient length) 50 μm i.d. “Extended Light Path Capillary” from Agilent. UV detection was performed at 200 nm (16 nm Bw, Reference 380 nm and 50 nm Bw). The running electrolyte was phosphate buffer 50 mM pH7.0. The capillary was conditioned with 0.1M NaOH for 3 min, then with Milli-Q water for 2 min and with the electrolyte for 3 min.
After each run, the capillary was flushed with milli-Q water for 2 min, then with phosphoric acid for 2 min, and with milli-Q water for 2 min. The hydrodynamic injection was done at 50 mbar for 4.0 s. The voltage was +25 kV. The capillary temperature was 30 C and the runtime was 10.5 min.
To a 1M solution of […] in triethanolamine 20 mM pH8.6 buffer (14 μl) was added triethanolamine 20 mM pH8.6 buffer (20.6 μl), ethylene glycol (53.6 μl) (40% w/v)), and a solution of human growth hormone (50 mg/ml) in triethanolamine 20 mM pH8.6 buffer (40 μl). The reaction was started by the addition of the TGase MTG P2 solution (0.35 mg/ml, 5.8 μl). The reaction mixture was incubated at ambient temperature and followed on CE.
The reaction was carried out in an analogous manner to the above method using the following concentrations: • [hGH]=0.67 mM (14.9 mg/ml final concentration) • [1,3-diamino 2-propanol]=300 mM • Buffer: 20 mM Triethanolamine pH 8.6 • +/−Ethylene glycol 40% (v/v) • [TGase MTG P2]=0.39 μM
The reaction was carried out in an analogous manner to the above method using the following concentrations: • [hGH]=0.67 mM (14.9 mg/ml final concentration) • [1,3-diamino 2-propanol]=300 mM • Buffer: 20 mM Triethanolamine pH 8.6 • +/−Ethylene glycol 10-40% (v/v) • [TGase MTG P2]=0.39 μM
The reaction was carried out in an analogous manner to the above method using the following concentrations: • [hGH]=0.67 mM (14.9 mg/ml final concentration) • [1,3-diamino 2-propanol]=300 mM • Buffer: 20 mM Triethanolamine pH 8.6 • +/−Ethylene glycol 40% (v/v) • [TGase MTG P2]=0.39 μM or 0.16 μM
The reaction was carried out with ethylene glycol, glycerol, propylene glycol and 1,3 propanediol in an analogous manner to the above method using the following concentrations: • [hGH]=0.67 mM (14.9 mg/ml final concentration) • [1,3-diamino 2-propanol]=300 mM • Buffer: 20 mM Triethanolamine pH 8.6 • +/−enhancing compound 7.18 M • [TGase MTG P2]=0.39 μM
The reaction was carried out with glycerol in an analogous manner to the above method, except for the fact that more enzyme was added after five hours of reaction time. The reaction used the following concentrations: • [hGH]=0.67 mM (14.9 mg/ml final concentration) • [1,3-diamino 2-propanol]=300 mM • Buffer: 20 mM Triethanolamine pH 8.6 • Glycerol 7.18 M • [TGase MTG P2]=0.39 μM then 1.17 μM at 5 hours

Where [1] appears, read: enhancing compound 7.18 M, TGase MTG P2 0.39 μM, FIG. 7.

Molecules are shown by their SMILES. Like-named read-outs stand apart in the source and are kept apart here.

T1 sequence (P81453 77-407): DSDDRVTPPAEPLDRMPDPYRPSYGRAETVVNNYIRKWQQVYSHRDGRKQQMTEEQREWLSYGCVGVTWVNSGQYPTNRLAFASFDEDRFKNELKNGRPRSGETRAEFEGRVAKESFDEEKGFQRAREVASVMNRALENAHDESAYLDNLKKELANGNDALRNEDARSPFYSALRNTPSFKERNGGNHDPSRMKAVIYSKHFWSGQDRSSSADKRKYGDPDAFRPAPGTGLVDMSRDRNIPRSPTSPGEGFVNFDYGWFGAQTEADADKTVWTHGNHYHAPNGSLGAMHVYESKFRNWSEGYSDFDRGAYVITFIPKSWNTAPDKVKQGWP

For the compound `OCC(O)CO` [Glycerol, glycerol], the “selectivity of the reaction” value is “improved the selectivity of the reaction”. Also, under setting [1], the “side products (pos.40-TA-hGH and di-transaminated hGH) formed” value is “reduce the amount of side products”. For the same compound, for the setting “glycerol 7.18 M, TGase MTG P2 0.39 μM then 1.17 μM at 5 hours, FIG. 8”, the “yield when more enzyme is added” value is “can be increased”.
On to `OCCO` [ethylene glycol], for which the “product yield, varying enzyme concentration” value is reported as “highest product yield”; the “yield of pos.141 TA-hGH with rising ethylene glycol concentration” value is reported as “increased yield”; the “yield, comparison of compounds of related structures” value is “highest yield”. Besides, the “maximum yield of the desired pos.141-hGH” value (pH 8.6) was determined as 75%.
As to `OCCCO` [1,3 propanediol, reference compound], the “effect on the enzyme reaction” value (1,3 propanediol 7.18 M, TGase MTG P2 0.39 μM, FIG. 7) was “completely inhibited the reaction”.
As to `CC(O)CO` (stereo not drawn) [Propylene glycol, propylene glycol], the “yield, comparison of compounds of related structures” value under setting [1] is “next highest yield”.

Source of the values: US20100009917A1, “Modulating Enzymatic Processes by Addition of Diolcontaining Substances” (priority 2007, published 2010).
